Data on four compounds can be found in patent publication US5541208A, “Indole diterpene alkaloid compounds” (priority 1994, dated 1996).

Where two headings read alike, the source gives them in different places. Some results are limits rather than exact numbers.

Test [1] has as its target T1, bovine aortic sarcolemma membrane vesicles ([^125 I]ChTX receptor) (Bos taurus, UniProt Q28204).
T1 construct: bovine aortic s sarcolemma membrane vesicles; from tissue; host or cells: bovine aorta, sarcolemma membrane vesicles
The test is described as follows: [^125 I]ChTX binding assay with aortic sarcolemma membrane vesicles. The settings on record: for effect on [^125 I]ChTX binding: 1 nM to 100 μM. On the procedure: The interaction of [^125 I]ChTX with bovine aortic s sarcolemma membrane vesicles was determined under conditions as described (Vazquez et al., 1989, J. Biol. Chem. 264, 20902-20909). Briefly, sarcolemma membrane vesicles were incubated in 12×75 polystyrene tubes with ca. 25 pM [^125 I]ChTX (2200 Ci/mmol), in the absence or presence of test compound, in a media consisting of 20 mM NaCl, 20 mM Tris-HCl pH 7.4, 0.1% bovine serum albumin, 0.1% digitonin. Nonspecific binding was determined in the presence of 10 nM ChTX. Incubations were carried out at room temperature until ligand binding equilibrium is achieved at ca. 90 min. At the end of the incubation period, samples were diluted with 4 mL ice-cold 100 mM NaCl, 20 mM Hepes-Tris pH 7.4 and filtered through GF/C glass fiber filters that have been presoaked in 0.5% polyethylenimine. Filters were rinsed twice with 4 mL ice-cold quench solution. Radioactivity associated with filters was determined in a gamma counter. Specific binding data in the presence of each compound (difference between total binding and nonspecific binding) was assessed relative to an untreated control.

Test [2] concerns the target T2, maxi-K channels from bovine aortic smooth muscle (Bos taurus, UniProt Q28204).
T2 construct: membrane patches excised from cultured bovine aortic smooth muscle cells; endogenous in cells; host or cells: cultured bovine aortic smooth muscle cells
Nature of the test: Patch clamp recording of maxi-K channel currents in excised inside-out membrane patches. Format: biochemical. The following applies: for IC50: table of Example 4, read-out: 50% CHANNEL BLOCK; for block of maxi-K channels relative to Compound C: compared with Compound C; for inhibition at 0.01 µM: pH 7.2. From the text:
Patch clamp recordings of currents flowing through large-conductance calcium-activated potassium (maxi-K) channels were made from membrane patches excised from cultured bovine aortic smooth muscle cells using conventional techniques (Hamill et al., 1981, Pflugers Archiv. 391, 85-100) at room temperature. Glass capillary tubing (Gamer #7052) was pulled in two stages to yield micropipettes with tip diameters of approximately 1-2 microns. Pipettes were typically filled with solutions containing (mM): 150 KCl, 10 Hepes (4-(2-hydroxyethyl)-1-piperazine ethanesulfonic acid), 1 Mg, 0.01 Ca, and adjusted to pH 7.20 with 3.7 mM KOH. After forming a high resistance (>10^9 ohms) seal between the sarcolemmal membrane and the pipette, the pipette was withdrawn from the cell, forming an excised inside-out membrane patch. The patch was excised into a bath solution containing (mM): 150 KCl, 10 Hepes, 5 EGTA (ethylene glycol bis(13-aminoethyl ether)-N,N,N',N'-tetraacetic acid), sufficient Ca to yield a free Ca concentration of 1-5 μM, and the pH was adjusted to 7.2 with 10.5 KOH. For example, 4.568 mM Ca was added to give a free concentration of 2 μM at 22 ° C. An AXOPATCH 1C amplifier (Axon Instruments, Foster City, Calif.) with a CV-4 headstage was used to control the voltage and to measure the currents flowing across the membrane patch. The input to the headstage was connected to the pipette solution with a Ag/AgCl wire, and the amplifier ground was connected to the bath solution with a Ag/AgCl wire covered with a tube filled with agar dissolved in 0.2M KCl. Maxi-K channels were identified by their large single channel conductance (~250 pS) and sensitivity of channel open probability to membrane potential and intracellular calcium concentration.
Data were stored on a RACAL STORE 4DS FM tape recorder (Racal Recorders, Vienna, Va.) or on digital video tape using a video casette recorder after digitizing the signal with VR-10 (Instrutech Corp., Belmont N.Y.) PCM video encoder. The signal was also recorded on chart paper with a GOULD 2400S chart recorder (Gould Inc., Cleveland Ohio). For quantitative analysis, the data was played into a DEC11-73 (Digital Equipment Corp., Maynard, Mass.) after digitization with a DT2782-8D1A analogue to digital converter (Data Translation Inc., Marlboro, Mass.), or played into a Mac IIx or Quadra 700 computer (Apple Computers) after digitization with an ITC-16 interface (Instrutech Corp., Belmont, N.Y.).

T2 sequence (Q28204 whole entry): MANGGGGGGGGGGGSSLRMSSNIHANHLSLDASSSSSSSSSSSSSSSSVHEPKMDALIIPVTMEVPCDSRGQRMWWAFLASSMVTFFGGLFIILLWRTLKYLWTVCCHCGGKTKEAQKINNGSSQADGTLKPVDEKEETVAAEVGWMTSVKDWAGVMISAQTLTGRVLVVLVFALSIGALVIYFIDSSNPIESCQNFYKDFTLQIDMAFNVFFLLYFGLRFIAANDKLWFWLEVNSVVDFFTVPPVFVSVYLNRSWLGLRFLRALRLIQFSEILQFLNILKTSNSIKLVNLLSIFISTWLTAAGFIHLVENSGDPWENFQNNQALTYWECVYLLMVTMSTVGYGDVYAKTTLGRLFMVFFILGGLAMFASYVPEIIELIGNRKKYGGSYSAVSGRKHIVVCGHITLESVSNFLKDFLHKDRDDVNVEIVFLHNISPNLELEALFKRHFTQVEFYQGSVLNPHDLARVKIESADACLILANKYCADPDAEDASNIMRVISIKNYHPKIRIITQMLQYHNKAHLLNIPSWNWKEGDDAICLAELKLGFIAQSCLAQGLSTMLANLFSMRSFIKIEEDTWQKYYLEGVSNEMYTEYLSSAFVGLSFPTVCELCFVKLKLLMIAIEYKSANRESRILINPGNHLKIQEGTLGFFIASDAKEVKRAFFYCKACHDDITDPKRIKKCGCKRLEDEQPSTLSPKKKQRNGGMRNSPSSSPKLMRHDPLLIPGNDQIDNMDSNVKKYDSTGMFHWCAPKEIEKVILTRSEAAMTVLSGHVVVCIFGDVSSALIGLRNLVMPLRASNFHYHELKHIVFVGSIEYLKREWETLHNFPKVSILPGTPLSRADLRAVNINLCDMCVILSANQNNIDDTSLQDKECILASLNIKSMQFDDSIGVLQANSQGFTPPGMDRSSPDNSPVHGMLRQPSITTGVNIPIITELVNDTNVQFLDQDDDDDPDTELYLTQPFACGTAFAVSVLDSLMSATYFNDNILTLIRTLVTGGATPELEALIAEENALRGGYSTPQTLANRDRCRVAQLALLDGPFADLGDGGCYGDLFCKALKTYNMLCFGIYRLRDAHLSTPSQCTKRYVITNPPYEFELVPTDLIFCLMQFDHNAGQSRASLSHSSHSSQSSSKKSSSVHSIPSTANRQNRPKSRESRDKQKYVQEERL
T1 sequence (Q28204 whole entry): as above
T1 sequence (Q28067 whole entry partner): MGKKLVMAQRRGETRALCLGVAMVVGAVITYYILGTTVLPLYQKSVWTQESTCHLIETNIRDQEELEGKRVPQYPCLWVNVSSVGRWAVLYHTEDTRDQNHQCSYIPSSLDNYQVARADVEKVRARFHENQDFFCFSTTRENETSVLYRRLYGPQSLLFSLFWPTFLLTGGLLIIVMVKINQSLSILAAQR

In the case of `CC(C)=CCc1cccc2[nH]c3c(c12)CC1CCC2(O)C45OC4C4OC(C=C(C)C)OC(C)(C)C4OC5=CCC2(C)C31C` (stereo not shown) [Compound C], the inhibition at 10 µM in test [1] (read-out: inhibition of [^125 I]ChTX binding) came to 29%. For the same compound, the “block of maxi-K channels / channel activity” value in test [2] (10 nM) is “rapid and complete block”. In test [2] (10 nM, brief (~10 min) washout), the “reversal of block on washout” value was “not reversed”. The IC50 in test [2] is under 10 nM.
In the case of `CC(C)(O)C1CC(O)C2(C(=O)O)C(CCC3(C)C2CCC2Cc4c([nH]c5ccccc45)C23C)O1` (stereo not shown) [Compound D, hydroxypaspalinic acid], the “effect on [^125 I]ChTX binding” value in test [1] is recorded as “did not have any effect on binding”. For the same compound, the “block of channel activity” value in test [2] (1 μM) is reported as “complete block was not observed”. In test [2], the “block of maxi-K channels relative to Compound C” value is “weaker blockers of maxi-K channels than Compound C” and the IC50 is about 1000 nM. Further, in test [2] (10 nM, read-out: reduction in channel open probability), the inhibition at 0.01 µM is under 50%.
As for `COC(=O)C12C(O)CC(C(C)(C)O)OC1CCC1(C)C2CCC2Cc3c([nH]c4ccccc34)C21C` (stereo not shown) [Compound E, methyl hydroxypaspalinate], the “effect on [^125 I]ChTX binding” value in test [1] is “did not affect [^125 I]ChTX binding”. Further, the “effect on channel open probability” value in test [2] (1 μM) was “no significant effect on channel open probability”. Besides, in test [2] (10 μM), the “block of channel activity” value was “incomplete block of channel activity” and the “time over which block of channel activity slowly increased” value lay in the range of 5 to 10 min. Besides, in test [2], the “block of maxi-K channels relative to Compound C” value is reported as “weaker blockers of maxi-K channels than Compound C” and the IC50 was over 10000 nM.
Take `CC1(C)ON=C2C=C3C(CCC4(C)C3(O)CCC3Cc5c([nH]c6ccccc56)C34C)OC21` (stereo not shown) [Compound F, Paxizoline]: the “effect on amount of toxin bound to its receptor” value in test [1] (50 nM to 2 μM) is “small increase in the amount of toxin bound to its receptor”. Also, the “effect on toxin binding” value in test [1] (concentrations above 5 μM) is “concentration-dependent inhibition of binding”. Besides, the inhibition at 0.01 µM in test [2] (10 nM, read-out: decrease in channel activity) was about 50%. Further, in test [2], the IC50 is about 10 nM.
